From ChEMBL document CHEMBL1147516, “Synthesis and evaluation of lasonolide A analogues” (2004)

Experiments:
Type in all cases: functional
Conditions in all cases: Homo sapiens
NCI-H46 = experiment: Growth inhibition against NCI-H460 cell line was evaluated
A549 = experiment: Growth inhibition against A549 cell line was evaluated
HCT-116 = experiment: Growth inhibition against HCT116 cell line was evaluated

GI50 (NCI-H46) [nM] | GI50 (A549) [nM] | GI50 (HCT-116) [nM] | SMILES
170 | 200 | 190 | CCCCCCCCCCCCOC(=O)[C@H](O)C/C=C\C[C@@H]1O[C@@H]2/C=C/C/C=C/C(C)=C\[C@H]3O[C@@H](C/C=C/C=C/C(=O)O[C@H](C2)[C@@]1(C)CO)C[C@H](O)[C@H]3C
1000 | 800 | 1800 | C=C(CCC(C)C)COC(=O)[C@H](O)C/C=C\C[C@@H]1O[C@@H]2/C=C/C/C=C/C(C)=C\[C@H]3O[C@@H](C/C=C/C=C/C(=O)O[C@H](C2)[C@@]1(C)CCO)C[C@H](O)[C@H]3C
65 | 100 | 45 | C=C(CCC(C)C)COC(=O)[C@H](O)C/C=C\C[C@@H]1O[C@@H]2/C=C/C/C=C/C(C)=C\[C@@H]3C[C@@H](O)C[C@H](C/C=C/C=C/C(=O)O[C@H](C2)[C@@]1(C)CO)O3

SMILES | GI50 (NCI-H46) [nM] | GI50 (A549) [nM] | GI50 (HCT-116) [nM]
C=C(CCC(C)C)COC(=O)[C@H](O)C/C=C\C[C@@H]1O[C@@H]2/C=C/C/C=C/C(C)=C\[C@H]3O[C@@H](C/C=C/C=C/C(=O)O[C@H](C2)[C@@]1(C)CO)C[C@H](O)[C@H]3C [LASONOLIDE A] | < 3 | 15 | 3
CCOC(=O)[C@H](O)C/C=C\C[C@@H]1O[C@@H]2/C=C/C/C=C/C(C)=C\[C@H]3O[C@@H](C/C=C/C=C/C(=O)O[C@H](C2)[C@@]1(C)CO)C[C@H](O)[C@H]3C [LASONOLIDE E] | 15 | 7 | 100
